The text below walks through data of US20060241132A1, “Spiro derivatives and adhesion molecule inhibitors comprising the same as active ingredient” (Toray Industries, Inc. A Corporation of Japan, priority 2002, published 2006).

Structures are written as SMILES.

One may read the IC50 as the concentration needed to halve the response being measured.

Assay [1] concerns the target soluble VLA-4 (Homo sapiens, UniProt P05556+P13612). Briefly: Inhibition of binding between CS-1 peptide and soluble VLA-4. The settings on record: absorbance at 490 nm, read-out: Inhibitory activity (IC50: nM). How it is done:
The inhibitory activity of the compound according to the present invention against the adhesion of VLA-4 may be determined by using an adhesion-measuring system in which the adhesion between VLA-4-expressing cells such as Ramos cells or Jurkat cells and fibronectin or fibronectin fragment such as a peptide containing CS-1 sequence (Gly Pro Glu He Leu Asp Val Pro Ser Thr) (hereinafter referred to as “CS-1 peptide”) immobilized on an immunoplate is measured. Alternatively, a binding-measuring system in which the adhesion between VLA-4 protein and fibronectin or fibronectin fragment such as CS-1 peptide immobilized on an immunoplate is measured may be used. In the present invention, it is preferred to evaluate the inhibitory activity of a compound using a binding-measuring system of soluble VLA-4 with CS-1 peptide (WO 98/32771), but the method is not restricted thereto. When testing the inhibitory effect of a compound, it is preferred to mix the soluble VLA-4 and the test compound beforehand.
Inhibitory Effect of Compounds Against Binding between CS-1 Peptide and Soluble VLA-4
The test compounds were evaluated in accordance with the method described in WO 98/32771. That is, in accordance with the teaching of a report (J. Bio. Chem., 262, 6886 (1987)), a conjugate between a peptide (Gys Leu His Gly Pro Glu Glu Ile Leu Asp Val Pro Ser Thr) containing CS-1 sequence and rabbit IgG (Sigma) was prepared. […]
Each compound and soluble VLA-4 (100 μl) were preliminarily reacted at room temperature for 20 minutes, and then the resulting mixture was allowed to react with the CS-1 peptide in each well at 30° C. for 3 hours. […] Then o-phenylenediamine as a substrate was added to color the reaction solution, and the absorbance at 490 nm was measured. From this absorbance, the binding inhibitory activity of each compound was determined.

The test system of assay [2] is DNFB-induced ear swelling in Balb/c mouse. The assay can be described thus: Mouse allergic inflammation: DNFB-induced ear swelling after anti-DNP IgE sensitization. The class given is in vivo. The settings on record: male Balb/c mouse, anti-DNP IgE sensitized. The procedure:
Inhibitory Effect of Compounds Against Mouse Allergic Inflammation
Using a seven-week old male Balb/c mouse (Charles River Japan, Inc.), sensitization was carried out by intravenously administering anti-DNP mouse IgE antibody. Twenty-four hours after sensitization, 0.38% DNFB (2,4-dinitrofluorobenzene) which was dissolved in a mixed solution of acetone:olive oil at 4:1 was applied to the right auricle of the mouse to induce inflammation. The thickness of both auricles was measured each hour after induction with a thickness gauge to calculate the ear swelling ratio (%) after induction versus pre-induction. The test compounds were dissolved in ethanol for applying to the auricle before induction.

Chain of soluble VLA-4 (P13612 35-977 limits assumed): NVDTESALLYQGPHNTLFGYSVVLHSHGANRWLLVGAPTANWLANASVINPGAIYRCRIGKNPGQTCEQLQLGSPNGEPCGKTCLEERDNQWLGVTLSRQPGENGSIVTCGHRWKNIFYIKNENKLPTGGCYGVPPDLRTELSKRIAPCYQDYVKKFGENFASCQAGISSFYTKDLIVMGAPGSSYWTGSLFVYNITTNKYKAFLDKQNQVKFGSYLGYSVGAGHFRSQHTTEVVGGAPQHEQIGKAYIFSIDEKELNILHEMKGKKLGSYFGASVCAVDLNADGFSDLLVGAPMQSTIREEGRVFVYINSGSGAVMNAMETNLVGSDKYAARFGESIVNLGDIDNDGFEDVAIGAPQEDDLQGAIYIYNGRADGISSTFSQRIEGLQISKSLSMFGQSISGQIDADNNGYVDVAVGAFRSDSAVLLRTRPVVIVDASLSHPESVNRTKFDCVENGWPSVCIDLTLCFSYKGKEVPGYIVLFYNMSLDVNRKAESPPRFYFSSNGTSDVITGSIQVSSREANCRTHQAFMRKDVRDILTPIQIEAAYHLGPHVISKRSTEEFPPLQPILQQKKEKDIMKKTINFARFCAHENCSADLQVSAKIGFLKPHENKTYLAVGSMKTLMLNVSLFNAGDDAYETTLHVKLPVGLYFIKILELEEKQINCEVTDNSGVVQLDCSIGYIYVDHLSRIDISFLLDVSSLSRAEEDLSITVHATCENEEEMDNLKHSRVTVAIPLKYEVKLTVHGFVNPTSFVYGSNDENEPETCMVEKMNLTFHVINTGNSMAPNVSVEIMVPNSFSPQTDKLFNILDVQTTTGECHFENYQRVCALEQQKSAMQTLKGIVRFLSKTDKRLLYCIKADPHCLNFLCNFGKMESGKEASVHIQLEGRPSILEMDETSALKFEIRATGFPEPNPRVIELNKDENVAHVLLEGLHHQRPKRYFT
Chain of soluble VLA-4 (P05556 21-728 limits assumed): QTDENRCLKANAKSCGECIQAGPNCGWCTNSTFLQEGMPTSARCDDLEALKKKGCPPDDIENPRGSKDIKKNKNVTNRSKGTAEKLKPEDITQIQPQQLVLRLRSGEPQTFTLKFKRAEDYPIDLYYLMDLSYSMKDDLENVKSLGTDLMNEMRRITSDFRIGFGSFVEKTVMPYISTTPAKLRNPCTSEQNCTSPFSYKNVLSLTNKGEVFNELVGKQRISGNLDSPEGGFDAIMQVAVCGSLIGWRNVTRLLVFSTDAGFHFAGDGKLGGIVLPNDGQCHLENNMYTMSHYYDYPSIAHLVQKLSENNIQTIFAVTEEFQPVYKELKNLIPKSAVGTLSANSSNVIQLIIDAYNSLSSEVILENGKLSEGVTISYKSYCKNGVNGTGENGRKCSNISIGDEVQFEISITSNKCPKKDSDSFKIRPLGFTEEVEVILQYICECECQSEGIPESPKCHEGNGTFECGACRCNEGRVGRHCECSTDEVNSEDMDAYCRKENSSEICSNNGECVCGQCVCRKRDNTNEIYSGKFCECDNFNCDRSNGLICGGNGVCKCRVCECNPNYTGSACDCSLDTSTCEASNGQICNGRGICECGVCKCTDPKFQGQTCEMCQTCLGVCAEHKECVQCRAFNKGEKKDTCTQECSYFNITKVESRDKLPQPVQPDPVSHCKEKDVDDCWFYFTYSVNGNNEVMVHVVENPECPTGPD

Take `Cc1cccc(Cl)c1S(=O)(=O)NC(CNC(=O)N1CCC2(CC1)C(=O)N(C)CN2c1ccccc1)C(=O)O` (centres unmarked) [Compound 8, 2-(((2-Chloro-6-methylphenyl)sulfonyl)amino)-3-((2,4,8-triaza-2-methyl-1-oxo-4-phenylspiro[4.5]dec-8-yl)carbonylamino)propanoic acid]: the IC50 in assay [1] came out at 110 nM.

On to `CC(=O)N1CCC[C@H]1C(=O)NC(CNC(=O)N1CCC2(CC1)C(=O)NCN2c1ccccc1)C(=O)O` (stereo partly drawn) [Compound 16, 2-(((2S)-1-Acetylpyrrolidine-2-yl)carbonylamino)-3-((2,4,8-triaza-1-oxo-4-phenylspiro[4.5]dec-8-yl)carbonylamino)propanoic acid], for which, in assay [1], the IC50 stood at 110 nM. In assay [2] (0.38% DNFB on right auricle, compound in ethanol applied to the auricle before induction), the “ED 50 value, suppression of the increase in the ratio of ear swelling” value is given as 0.8 mg/kg. Also, the “suppression of the increase in the ratio of ear swelling from DNFB induction” value in assay [2] (DNFB-induced, compound applied to the auricle before induction) is recorded as “suppressed the increase in the ratio of ear swelling in a dose-dependent manner”.

For the molecule `CC(=O)N1CCCCC1C(=O)NC(CNC(=O)N1CCC2(CC1)C(=O)NCN2c1ccccc1)C(=O)O` (centres unmarked) [Compound 18, 2-((1-Acetyl(2-piperidyl))carbonylamino)-3-((2,4,8-triaza-1-oxo-4-phenylspiro[4.5]dec-8-yl)carbonylamino)propanoic acid], the IC50 in assay [1] was found to be 65 nM.
